{
  "source": "patent US8314060B2",
  "about": "“Peptide conjugated anti-cancer prodrugs” (BioSight Ltd., priority 2000, dated 2012)",
  "key": {"[1]": {"tested_on": "Human umbilical vein-derived endothelial cells (HUVEC)", "assay": "Tissue culture cell counting (cell coulter) after 72 hours, HUVEC (normal cells)", "type": "cell-based", "procedure": "(§1) Human umbilical vein-derived endothelial cells (HUVEC) were prepared from umbilical veins and cultured as described previously. The HUVE cells were grown in M199 medium supplemented with 20% fetal calf serum, vitamins, 1 ng/ml hbFGF, and antibiotics.\n(§2) To determine the biological activity of the drugs, HUVEC (normal cells) or melanoma (cancer) cells were seeded in 24-well dish at a concentration of 10,000-20,000 cells/well, and increasing concentrations of the prodrug 3-Peptide I-Chlorambucil (P-CAC) were added to the wells. As controls, either Cholorambucil or the peptide carrier was added under the same experimental conditions. After 72 hours the cells were washed with phosphate buffer saline (PBS), suspended with 0.5% EDTA/PBS, and counted using cell coulter (Electronics ZM). Cell viability was verified by trypan-blue staining and hemocytometer analysis. IC50 indicates the concentration of the drug measured at 50% of the cell death."}, "[2]": {"tested_on": "Human melanoma cells (WW-94)", "assay": "Tissue culture cell counting (cell coulter) after 72 hours, melanoma cells", "type": "cell-based", "details": "melanoma (cancer) cells, FIG. 4A, read-out: IC50 (concentration of the drug measured at 50% of the cell death)", "procedure": "(§3) Human melanoma cells (WW-94) were grown in 50% DMEM/50% F-12 medium supplemented with 10% fetal calf serum and antibiotics.\nas §2"}, "[3]": {"tested_on": "HUVEC", "assay": "MTT assay for estimation of toxicity, HUVEC (normal cells)", "type": "cell-based, human", "procedure": "as §1\n(§4) HUVEC or melanoma cells were seeded in 96-well ELISA dish at a concentration of 10,000-20,000 cells/well, and various concentrations of the prodrug 1 were added to the wells as described in Example 17. As a control, Melphalan was added under the same experimental conditions. After 72 hours the medium was aspirated, and DMEM containing 5% FCS and 0.5 mg/ml MTT (an indicator of cell viability) was added. The cells were incubated for 2-4 hours at 37° C. and 5% CO2. At the end of the incubation the cells were washed with phosphate buffer saline (PBS), and dissolved with DMSO. The results were analysed using Techan ELISA reader equipped with a 570 nm filter."}, "[4]": {"tested_on": "melanoma cells", "assay": "MTT assay for estimation of toxicity, melanoma cells", "type": "cell-based", "details": "Homo sapiens, 72 hours, FIG. 5B", "procedure": "as §3, §4"}, "[5]": {"tested_on": "MMPs secreted by cancer cells (conditioned medium of human melanoma cells HMCM or human breast cancer cells BCCM)", "assay": "In-vitro release of Chlorambucil from the peptide carrier by cancer cell conditioned medium", "type": "biochemical", "details": "PBS, 2 hours at 37° C., FIG. 6", "procedure": "To find out whether proteases are secreted to the conditioned medium of cancer cells, breast cancer cells or melanoma cells were grown to sub-confluence in a 10 cm dish. The cells were washed with PBS, and further incubated with serum free medium. HUVE cells were grown to confluence at 10 cm dish. The cells were washed with M-199 medium, and conditioned with M-199 with 1% heat inactivated serum. The conditioned medium was collected after 24 hours.\n(§5) In-vitro release of Chlorambucil from the peptide carrier was carried out in a liquid phase as described in Example 19. Peptide I-Chlorambucil was dissolved in PBS, and incubated for 2 hours at 37° C. in the absence or presence of purified MMPs, or in the presence of conditioned medium of either human melanoma cells (HMCM) or human breast cancer cells (BCCM).\n(§6) At the end of the incubation the reaction mixture was incubated with heparin-sepharose (30 minutes at 0° C.). The supernatant was collected, and the release of free chlorambucil was monitored by spectrophotometer at a wavelengh of 305 nm."}, "[6]": {"tested_on": "purified MMPs", "assay": "In-vitro release of Chlorambucil from the peptide carrier by purified MMPs", "type": "biochemical", "procedure": "as §5, §6"}},
  "note": "Non-standard residues stand in square brackets, D forms with d. Residues, ends and D or L forms follow the SMILES beside them. No end group written: not given here. *: point of attachment. Phe(4-N(CH2CH2Cl)2) = N[C@@H](Cc1ccc(N(CCCl)CCCl)cc1)C(=O)O; Chlorambucil = O=C(CCCc1ccc(N(CCCl)CCCl)cc1)*",
  "data": [
    {"molecule": "YGLLGIAGPPGPPLYKKIIKKLLQS [peptide carrier]", "values": [
      {"measurement": "toxicity to HUVEC", "setting": "[1]; HUVEC, 72 hours, FIG. 4", "result": "not toxic"}
    ]},
    {"molecule": "O=C(O)CCCc1ccc(N(CCCl)CCCl)cc1", "note": "[Chlorambucil, reference compound]", "values": [
      {"measurement": "IC50", "setting": "[2]", "result": 2000, "unit": "nM"},
      {"measurement": "IC50", "setting": "[1]; Homo sapiens, HUVEC, HUVE (normal) cells, 72 hours, cell counting, FIG. 4B, read-out: IC50 (concentration of the drug measured at 50% of the cell death)", "result": 2000, "unit": "nM"}
    ]},
    {"molecule": "N[C@@H](Cc1ccc(N(CCCl)CCCl)cc1)C(=O)O", "note": "[Melphalan, reference compound]", "values": [
      {"measurement": "IC50", "setting": "[3]; Homo sapiens, HUVEC, HUVE cells, 72 hours, FIG. 5A", "result": 100, "unit": "nM"},
      {"measurement": "IC50", "setting": "[4]", "result": 70, "unit": "nM"}
    ]},
    {"molecule": "CC[C@H](C)[C@H](NC(=O)CNC(=O)[C@H](CC(C)C)NC(=O)[C@H](CC(C)C)NC(=O)CNC(=O)[C@H](Cc1ccc(O)cc1)NC(=O)[C@@H](N)Cc1ccc(N(CCCl)CCCl)cc1)C(=O)N[C@@H](C)C(=O)NCC(=O)N1CCC[C@H]1C(=O)N1CCC[C@H]1C(=O)NCC(=O)N1CCC[C@H]1C(=O)N1CCC[C@H]1C(=O)N[C@@H](CC(C)C)C(=O)N[C@@H](Cc1ccc(O)cc1)C(=O)N[C@@H](CCCCN)C(=O)N[C@@H](CCCCN)C(=O)N[C@H](C(=O)N[C@H](C(=O)N[C@@H](CCCCN)C(=O)N[C@@H](CCCCN)C(=O)N[C@@H](CC(C)C)C(=O)N[C@@H](CC(C)C)C(=O)N[C@@H](CCC(N)=O)C(=O)N[C@@H](CO)C(=O)O)[C@@H](C)CC)[C@@H](C)CC", "note": "[Prodrug 1, Peptide I-Melphalan] (H-[Phe(4-N(CH2CH2Cl)2)]YGLLGIAGPPGPPLYKKIIKKLLQS-OH; N-terminus and C-terminus assumed)", "values": [
      {"measurement": "times less toxic to normal cells", "setting": "[3]; HUVE cells versus melanoma cells", "result": 7, "unit": "times"}
    ]},
    {"molecule": "CC[C@H](C)[C@H](NC(=O)CNC(=O)[C@H](CC(C)C)NC(=O)[C@H](CC(C)C)NC(=O)CNC(=O)[C@H](Cc1ccc(O)cc1)NC(=O)CCCc1ccc(N(CCCl)CCCl)cc1)C(=O)N[C@@H](C)C(=O)NCC(=O)N1CCC[C@H]1C(=O)N1CCC[C@H]1C(=O)NCC(=O)N1CCC[C@H]1C(=O)N1CCC[C@H]1C(=O)N[C@@H](CC(C)C)C(=O)N[C@@H](Cc1ccc(O)cc1)C(=O)N[C@@H](CCCCN)C(=O)N[C@@H](CCCCN)C(=O)N[C@H](C(=O)N[C@H](C(=O)N[C@@H](CCCCN)C(=O)N[C@@H](CCCCN)C(=O)N[C@@H](CC(C)C)C(=O)N[C@@H](CC(C)C)C(=O)N[C@@H](CCC(N)=O)C(=O)N[C@@H](CO)C(=O)O)[C@@H](C)CC)[C@@H](C)CC", "note": "[Prodrug 3, Peptide I-Chlorambucil] (Chlorambucil-YGLLGIAGPPGPPLYKKIIKKLLQS-OH)", "values": [
      {"measurement": "release of free chlorambucil from the peptide carrier", "setting": "[5]", "result": "can be released"},
      {"measurement": "effect of heparin on release of the chemotherapeutic agent from the peptide carrier", "setting": "[6]; presence of 10 μg/ml heparin, 2 hours incubation", "result": "inhibited the release"},
      {"measurement": "release of free chlorambucil from the peptide carrier", "setting": "[6]; purified MMPs, PBS, 2 hours at 37° C., read at 305 nm, FIG. 6", "result": "can be released"},
      {"measurement": "times less toxic to normal cells", "setting": "[1]; HUVE cells versus melanoma cells, cell counting", "result": 30, "unit": "times"}
    ]}
  ]
}
